These results are taken from ChEMBL document CHEMBL6177939, “The role of silicon in drug discovery: a review” (RSC Med Chem, 2024).

As a reminder, the EC50 is the concentration at which the effect is half-maximal. The low end stands for higher potency in that assay, the high end for lower potency in that assay. By LC50 is commonly meant the concentration that kills 50% of the test population. A word on the MIC: it is the smallest concentration in the dilution series that meets the test's criterion for growth inhibition. A word on the IC50: it is the point on the concentration scale where inhibition reaches its midpoint.

Assay [1] is described as follows: Agonist activity at rat GPR81 transfected in T-REX-CHO cells by cAMP assay. It is filed as cell-based. In general terms: Changes in cAMP serve as a functional read-out for many G protein-coupled receptors.
Assay [2] has as its target Hydroxycarboxylic acid receptor 2 (Rattus norvegicus, UniProt Q80Z39). Put plainly: Agonist activity at rat GPR109A transfected in T-REX-CHO cells by cAMP assay. It is filed as cell-based.
Assay [3] relates to MG-22A. Briefly: Cytotoxicity against mouse MG-22A cells assessed as reduction in cell growth by measuring lethal concentration for 72 hrs by MTT assay. It is filed as functional. A general note: Tetrazolium assays rely on reduction of a dye to a coloured formazan, in cell work by metabolically active cells.
Assay [4] relates to HT-1080. Put plainly: Cytotoxicity against human HT-1080 cells assessed as reduction in cell growth by measuring lethal concentration for 72 hrs by MTT assay. In kind it is functional.
Assay [5] deals with Staphylococcus epidermidis. Briefly: Antibacterial activity against Staphylococcus epidermidis assessed as inhibition of bacterial growth incubated for 24 hrs by nutrient agar plate method. It is filed as functional.
In assay [6] the test system is HT-1080. Briefly: Cytotoxicity against human HT-1080 cells assessed as reduction in cell growth measured for 72 hrs by crystal violet staining based analysis. It is filed as functional. The following applies: HT-1080, 72 h.
The subject of assay [7] is MG-22A. Briefly: Cytotoxicity against mouse MG-22A cells assessed as reduction in cell growth measured for 72 hrs by crystal violet staining based analysis. It is filed as functional.
The next assay concerns Staphylococcus aureus. Put plainly: Antibacterial activity against Staphylococcus aureus PTCC 1112 assessed as reduction in cell growth incubated for 24 hrs by Mueller-Hinton Broth micro dilution method. In kind it is functional.
For another assay, the system named is Pseudomonas aeruginosa. Put plainly: Antibacterial activity against Pseudomonas aeruginosa PTCC 1074 assessed as reduction in cell growth incubated for 24 hrs by Mueller-Hinton Broth micro dilution method. In kind it is functional.
A further assay deals with Salmonella typhimurium. Briefly: Antibacterial activity against Salmonella enterica subsp. enterica serovar Typhimurium PTCC 1609 assessed as reduction in cell growth incubated for 24 hrs by Mueller-Hinton Broth micro dilution method. In kind it is functional.
The subject of another assay is Escherichia coli. Briefly: Antibacterial activity against Escherichia coli PTCC 1330 assessed as reduction in cell growth incubated for 24 hrs by Mueller-Hinton Broth micro dilution method. In kind it is functional.
Assay [8] has as its system Panel NCI-60 (60 carcinoma cell lines). Put plainly: Cytotoxicity against human Panel NCI-60 (60 carcinoma cell lines) assessed as reduction in cell growth incubated for 72 hrs by CCK-8 assay. It is filed as functional, cell-based.

Converted amounts (≈) assume the structure as drawn. Bounds are passed on as bounds.

Hydroxycarboxylic acid receptor 2, sequence (Q80Z39 whole entry): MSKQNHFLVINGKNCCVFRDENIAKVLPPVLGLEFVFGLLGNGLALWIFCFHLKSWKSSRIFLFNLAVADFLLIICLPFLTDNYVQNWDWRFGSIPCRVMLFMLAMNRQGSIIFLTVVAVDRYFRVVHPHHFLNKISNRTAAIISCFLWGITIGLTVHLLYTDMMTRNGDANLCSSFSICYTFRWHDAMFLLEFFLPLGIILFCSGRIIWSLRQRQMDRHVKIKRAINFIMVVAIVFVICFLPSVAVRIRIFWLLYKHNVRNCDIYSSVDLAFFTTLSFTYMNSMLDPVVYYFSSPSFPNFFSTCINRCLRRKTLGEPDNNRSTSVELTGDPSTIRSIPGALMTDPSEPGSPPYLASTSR

With `CCOc1cc(Cl)c(C(=O)NC(=O)Nc2nc3c(s2)CCCC3)cc1N1CCOCC1`, a half-maximal response in assay [1] (EC50) required 0.24 µM.

Regarding `CCOc1cc(Cl)c(C(=O)NC(=O)Nc2nc3c(s2)CCCC3)cc1-n1cccn1`, the results for the EC50 in assay [2] and in assay [1] were 0.25 µM and 0.018 µM, respectively. Turning to `CCOc1cc(Cl)c(C(=O)NC(=O)Nc2nc3c(s2)C[Si](c2ccccc2)(c2ccc(OC)cc2)CC3)cc1-n1cccn1` (stereo not given), the EC50 amounted to 0.47 µM in assay [2] and 0.21 µM in [1]. Take `CCOc1cc(Cl)c(C(=O)NC(=O)Nc2nc3c(s2)C[Si](C)(c2ccc(OC)cc2)CC3)cc1-n1cccn1` (stereo not given): the EC50 was 0.47 µM in [2] and 0.21 µM in assay [1]. Turning to `CCCCCCC[Si](C)(C)OCC[N+]1(C)CCc2ccccc2C1.[I-]` (stereo not given), the results for the LC50 in the assay on MG-22A [3] and with HT-1080 [4] were 1 µg/mL and less than 1 µg/mL, respectively.

In the case of `CC[Si](CC)(CC)c1cccc(CN(Cc2ccccn2)Cc2ccccn2)c1O`, the MIC in [5] worked out at 1.2 µg/mL (≈ 2.86 µM). For the compound `CCC[Si]1(CCC)CCc2nc(NC(=O)NC(=O)c3cc(N4CCOCC4)c(OCC)cc3Cl)sc2C1`, the EC50 in assay [2] is 1.2 µM; in assay [1] it was 1 µM. In the case of `CC[Si](CC)(CC)c1ccc([Si](C)(CCCN2CCCCC2)c2ccc([Si](CC)(CC)CC)o2)o1`, the IC50 in the assay on HT-1080 [6] and in the assay with MG-22A [7] was 3 µg/mL (≈ 5.64 µM) each time. As to `CC[Si](CC)(CC)c1ccc([Si](C)(CCCN2CCN(C)CC2)c2ccc([Si](CC)(CC)CC)o2)o1`, the IC50 with HT-1080 [6] and in the assay on MG-22A [7] was 3 µg/mL (≈ 5.48 µM) in each case.

Regarding `CCOc1cc(Cl)c(C(=O)NC(=O)Nc2nc3c(s2)C[Si](C)(c2c(OC)cccc2OC)CC3)cc1-n1cccn1` (stereo not given), the EC50 in assay [2] was 0.47 µM; in [1] it was 0.21 µM. Consider `C[Si](C)(C)C(S)(C(=S)CCCCn1nnc(Sc2ccccc2)n1)[Si](C)(C)C`, for which the MIC in the assay on Staphylococcus aureus, with Pseudomonas aeruginosa, in the assay with Salmonella typhimurium and in the assay with Escherichia coli was 3.91 µg/mL (≈ 8.34 µM) each time. As to `CC[Si](CC)(CC)OCC[N+]1(C)CCc2ccccc2C1.[I-]` (stereo not given), the LC50 in the assay with MG-22A [3] was 2 µg/mL; in the assay with HT-1080 [4], less than 1 µg/mL. As to `CCC[Si]1(c2ccc(OC)cc2)CCc2nc(NC(=O)NC(=O)c3cc(-n4cccn4)c(OCC)cc3Cl)sc2C1` (stereo not given), the results for the EC50 in assay [2] and in assay [1] were 0.47 µM and 0.21 µM, respectively.

For `CCOc1cc(Cl)c(C(=O)NC(=O)Nc2nc3c(s2)C[Si](c2ccccc2)(c2c(OC)cccc2OC)CC3)cc1-n1cccn1` (stereo not given), the values for the concentration for a half-maximal effect (EC50) in assay [2] and in assay [1] were 0.47 µM and 0.21 µM, respectively. With `CC1(C)CC(NC(=O)[C@H](Cc2ccc(-c3ccccc3)cc2)NC(=O)c2ccc(OCC[Si](C)(C)C)cc2)CC(C)(C)N1`, the IC50 in assay [8] was determined as 1.5 µM.

For `CCC[Si]1(c2c(OC)cccc2OC)CCc2nc(NC(=O)NC(=O)c3cc(-n4cccn4)c(OCC)cc3Cl)sc2C1` (stereo not given), the EC50 is 0.47 µM in assay [2] and 0.21 µM in [1]. Take `CCCCCCCC[Si](C)(C)OCC[N+]1(C)CCc2ccccc2C1.[I-]` (stereo not given): the LC50 in the assay on MG-22A [3] is 1 µg/mL; in the assay on HT-1080 [4], less than 1 µg/mL. Regarding `CN1CCN(CCC[Si](C)(c2ccc([Si](C)(C)C)o2)c2ccc([Si](C)(C)C)o2)CC1`, the IC50 with HT-1080 [6] and in the assay on MG-22A [7] was 3 µg/mL (≈ 6.48 µM) each time.

For the compound `CCCCCCCCCCC[Si](C)(C)OCC[N+]1(C)CCc2ccccc2C1.[I-]` (stereo not given), the LC50 is 1 µg/mL in the assay on MG-22A [3] and less than 1 µg/mL in the assay with HT-1080 [4]. For `CCCCCCCCCC[Si](C)(C)OCC[N+]1(C)CCc2ccccc2C1.[I-]` (stereo not given) the same measures were 1 µg/mL and less than 1 µg/mL. As to `CC[Si](C)(CC)OCC[N+]1(C)CCc2ccccc2C1.[I-]` (stereo not given), the LC50 is 2 µg/mL in the assay on MG-22A [3] and less than 1 µg/mL in the assay with HT-1080 [4]. With `CCCC[Si](C)(C)Oc1ccc(C(=O)N[C@@H](Cc2ccc(-c3ccccc3)cc2)C(=O)NC2CC(C)(C)NC(C)(C)C2)cc1`, the IC50 in assay [8] stood at 1.5 µM. With `CCOc1cc(Cl)c(C(=O)NC(=O)Nc2nc3c(s2)C[Si](C)(C)CC3)cc1N1CCOCC1`, the 50% effective concentration (EC50) in assay [2] was 1.2 µM; in assay [1], 1 µM. On to `CC(C)(C)[Si](c1ccccc1)(c1ccccc1)c1cccc(CN(Cc2ccccn2)Cc2ccccn2)c1O`, for which the MIC in [5] worked out at 1.2 µg/mL (≈ 2.21 µM). Consider `C[Si](C)(C)C(S)(C(=S)CCCCn1nnc(SC(=O)c2ccccc2)n1)[Si](C)(C)C`, for which the MIC with Staphylococcus aureus, in the assay on Pseudomonas aeruginosa, with Salmonella typhimurium and in the assay on Escherichia coli was 3.91 µg/mL (≈ 7.87 µM) each time. Regarding `CCCCCSc1nnn(CCCCC(=S)C(S)([Si](C)(C)C)[Si](C)(C)C)n1`, the MIC in the assay with Staphylococcus aureus, in the assay with Pseudomonas aeruginosa, with Salmonella typhimurium and in the assay on Escherichia coli was 3.91 µg/mL (≈ 8.45 µM) throughout.

In the case of `C[Si](C)(C)c1ccc([Si](C)(CCCN2CCCCC2)c2ccc([Si](C)(C)C)o2)o1`, the IC50 in the assay on HT-1080 [6] and in the assay with MG-22A [7] was 3 µg/mL (≈ 6.7 µM) in each case. As for `CCN(CC)CCC[Si](C)(c1ccc([Si](C)(C)C)o1)c1ccc([Si](C)(C)C)o1`, the IC50 with HT-1080 [6] and in the assay with MG-22A [7] was 3 µg/mL (≈ 6.88 µM) in each case.

Turning to `CC(C)(C)[Si](C)(C)c1cccc(CN(Cc2ccccn2)Cc2ccccn2)c1O`, the MIC in assay [5] turned out to be 1.2 µg/mL (≈ 2.86 µM). Regarding `C[Si](CCCN1CCOCC1)(c1ccco1)c1ccco1`, the values for the IC50 in the assay on HT-1080 [6] and with MG-22A [7] were 100 µg/mL (≈ 327 µM) and 38 µg/mL (≈ 124 µM), respectively.

As for `C[Si](C)(C)C(S)(C(=S)CCCCn1nnc(SCc2ccccc2)n1)[Si](C)(C)C`, the MIC with Staphylococcus aureus, in the assay on Pseudomonas aeruginosa, with Salmonella typhimurium and in the assay with Escherichia coli was 3.91 µg/mL (≈ 8.1 µM) throughout. As to `CC(C)[Si](c1cccc(CN(Cc2ccccn2)Cc2ccccn2)c1O)(C(C)C)C(C)C`, in [5], the MIC turned out to be 1.2 µg/mL (≈ 2.6 µM). Regarding `CCC[Si](C)(C)Oc1ccc(C(=O)N[C@@H](Cc2ccc(OCc3c(Cl)cccc3Cl)cc2)C(=O)NC2CC(C)(C)NC(C)(C)C2)cc1`, the IC50 in assay [8] is 1.5 µM. Take `CCCCCC[Si](C)(CCCCCC)OCC[N+]1(C)CCc2ccccc2C1.[I-]` (stereo not given): the LC50 in the assay on MG-22A [3] is 1 µg/mL; in the assay with HT-1080 [4], less than 1 µg/mL. For the compound `CC1(C)CC(NC(=O)[C@H](Cc2ccc(OCc3c(Cl)cccc3Cl)cc2)NC(=O)c2ccc(OCC[Si](C)(C)C)cc2)CC(C)(C)N1`, the IC50 in assay [8] amounted to 1.5 µM. Turning to `C[Si](C)(C)c1ccc([Si](C)(CCCN2CCOCC2)c2ccc([Si](C)(C)C)o2)o1`, the IC50 in the assay with HT-1080 [6] and with MG-22A [7] was 3 µg/mL (≈ 6.67 µM) throughout. With `CCCCSc1nnn(CCCCC(=S)C(S)([Si](C)(C)C)[Si](C)(C)C)n1`, the MIC with Staphylococcus aureus, with Pseudomonas aeruginosa, in the assay on Salmonella typhimurium and in the assay with Escherichia coli was 3.91 µg/mL (≈ 8.71 µM) throughout. `CCCCCCCCCCCCCCCC[Si](C)(C)OCC[N+]1(C)CCc2ccccc2C1.[I-]` (stereo not given): the values for the LC50 in the assay with MG-22A [3] and with HT-1080 [4] were 1 µg/mL and less than 1 µg/mL, respectively.

As for `CCCC[Si](CC)(CCCC)OCC[N+]1(C)CCc2ccccc2C1.[I-]` (stereo not given), the LC50 in the assay with MG-22A [3] is 2 µg/mL; in the assay with HT-1080 [4] it was less than 1 µg/mL. With `CCN(CC)CCC[Si](C)(c1ccc([Si](CC)(CC)CC)o1)c1ccc([Si](CC)(CC)CC)o1`, the IC50 in the assay with HT-1080 [6] and in the assay on MG-22A [7] was 3 µg/mL (≈ 5.77 µM) throughout. `C[Si](C)(C)c1cccc(CN(Cc2ccccn2)Cc2ccccn2)c1O`: the MIC in assay [5] came out at 1.2 µg/mL (≈ 3.18 µM). As for `CCOc1cc(Cl)c(C(=O)NC(=O)Nc2nc3c(s2)C[Si](c2ccccc2)(c2ccccc2)CC3)cc1N1CCOCC1`, the EC50 in [2] turned out to be 1.2 µM; in assay [1], 1 µM. With `CCOP(=O)(OCC)C(NC(=O)[C@H](Cc1ccc(-c2ccccc2)cc1)NC(=O)c1ccc(OCC[Si](C)(C)C)cc1)P(=O)(OCC)OCC`, in assay [8], the IC50 was 1.5 µM.
